The values below come from patent publication US10857245B2, “Diagnostic imaging agent for early bone metastasis from cancer” (NIHON MEDI-PHYSICS CO., LTD., priority 2015, dated 2020).

For assay [1], the system named is bone metastasis from rat breast cancer cell line MRMT-1. In words: Autoradiography in rat model of osteolytic bone metastasis from breast cancer. Type of assay: in vivo. The following applies: limb transplanted with MRMT-1 (right hind limb), day 12 to 14 after transplantation; tail vein; sacrifice after 30 minutes (^99mTc-HMDP 2 hours). As to the method: A rat breast cancer cell line MRMT-1 was obtained from RIKEN BioResource Center. MRMT-1 was subcultured using a medium RPMI1640 (manufactured by Life Technologies Japan Ltd.) with 10% fetal bovine serum (American Type Culture Collection), 100 U/mL penicillin (manufactured by Life Technologies Japan Ltd.), and 0.1 mg/mL streptomycin (manufactured by Life Technologies Japan Ltd). On the day of transplantation, the medium in a culture vessel was removed and Trypsin-EDTA solution (manufactured by Life Technologies Japan Ltd.) maintained at 37° C. was added to the culture vessel, which was left to stand at 37° C. for about 5 minutes. After MRMT-1 was detached from the surface of the culture vessel, the above-mentioned medium was added to the culture vessel in an amount equal to that of Trypsin-EDTA solution. MRMT-1 was precipitated by centrifugation (800 rpm, 5 min) and its supernatant was removed, and a cell suspension in which MRMT-1 was suspended in Hank's buffer (manufactured by Life Technologies Japan Ltd.) at a concentration of 2.5×10^5 cells/mL was then produced.
An anti-inflammatory analgesic, Metacam 0.5% Solution for Injection (manufactured by Boehringer Ingelheim Vetmedica Japan Co., Ltd.) was subcutaneously injected into the groin of the right hind limb of 9-week-old male SD rat (Japan SLC, Inc.) at a rate of 0.2 mg/kg under isoflurane (manufactured by Mylan) anesthesia, and the skin in the groin was then incised. Next, the saphenous artery, the saphenous vein and the nerve parallel thereto were removed from muscles and isolated, and a surgical suture (3-0) was passed under the saphenous artery in the portion distal to the popliteal artery bifurcation. In addition, tissues around the superficial epigastric artery bifurcation were removed and a surgical suture (3-0) was passed under the femoral artery between the superficial epigastric artery bifurcation and the popliteal artery bifurcation (the portion slightly distal to the superficial epigastric artery bifurcation). Subsequently, a few drops of Papaverine Hydrochloride Injection 40 mg (manufactured by Nichi-Iko Pharmaceutical Co., Ltd.) was added dropwise around the saphenous artery to relax vascular smooth muscle, and each end of the surgical suture passed under the saphenous artery and the femoral artery was picked up with forceps, and the saphenous artery and the femoral artery were lifted to compress the arteries. A cotton swab was put under the saphenous artery to retain the saphenous artery, and an injection needle was inserted from the distal portion of the saphenous artery in the central direction, and MRMT-1 suspension (0.1 mL) was slowly injected. […]

Assay [2] relates to bone metastasis from breast cancer cells (MRMT-1). Kind of assay: Triple tracer autoradiography in rat models of intertrabecular and osteolytic bone metastasis from breast cancer. Format: in vivo. The following applies: intertrabecular model day 6 and day 8, osteolytic model day 11 after transplantation; three tracers in an identical rat. How it is done:
MRMT-1 suspension was prepared in the same way as the MRMT-1 suspension prepared in Example 1.
A model of intertrabecular bone metastasis was prepared in the same way as the rat model of osteolytic bone metastasis prepared in Example 1 except that a MRMT-1 suspension was injected into right and left saphenous arteries of the 12-week old male SD rat (Japan SLC, Inc.), which was used for the following experiment at day 6 or day 8 after the transplantation. The lesion appeared only in right hind limb of the model at day 6 after the transplantation and left limb of the model at day 8 after the transplantation.
A model of osteolytic bone metastasis was prepared in the same way as the rat model of osteolytic bone metastasis prepared in Example 1 except that the model was produced from 12-week old male SD rat (Japan SLC, Inc.), and used for the following experiment at day 11 after the transplantation. […]

The test system of assay [3] is bone metastasis from prostate cancer. In words: PET/CT imaging of patient with prostate cancer, compared with bone scintigraphy and whole body contrast enhanced CT. The following applies: untreated patient with prostate cancer; 263.1 MBq intravenously; whole body PET finished by 30 minutes.
Assay [4] concerns bone metastasis from breast cancer. The conditions noted are these: human, in vivo; cited from earlier work.

`N[14C]1(C(=O)O)CC(F)C1` (stereo not drawn) [^14C-fluciclovine, trans-1-amino-3-fluorocyclobutane-1-[^14C]carboxylic acid]: in assay [1], the “accumulation in bone metastasis in the osteolytic lesion area (autoradiogram, arrow A)” value was “accumulated” and the “accumulation in bone metastasis prior to the formation of osteolytic lesion, not detectable in X-ray image (autoradiogram, arrow B)” value is reported as “also accumulated”. The “accumulation in the early focal site of bone metastasis (autoradiogram)” value in assay [2] is “accumulated”.

As for `N[C@]1(C(=O)O)C[C@@H](F)C1` [^18F-fluciclovine, trans-1-amino-[^18F]fluorocyclobutanecarboxylic acid], the “visualization of lesions which were not visualized on bone scintigraphy and whole body contrast enhanced CT” value in assay [3] is given as “visualized”.

For “technetium[^99mTc]hydroxymethylene diphosphonate [^99mTc-HMDP]”, in assay [1], the “accumulation in bone metastasis in the osteolytic lesion area (autoradiogram, arrow A)” value was “observed in neither” and the “accumulation in bone metastasis prior to the formation of osteolytic lesion, not detectable in X-ray image (autoradiogram, arrow B)” value is “observed in neither”. Also, the “accumulation in the early focal site of bone metastasis (autoradiogram)” value in assay [2] is recorded as “no accumulation”. For the same compound, in assay [4], the “combined sensitivity of all sites” value is reported as 78.2%, the “detection rate of osteoblastic bone metastasis” value is on record as 100% and the “detection rate of osteolytic bone metastasis” value was 70.0%.
